Source: paper PMC9696794, “Synthesis and Antimicrobial Activity of Short Analogues of the Marine Antimicrobial Peptide Turgencin A: Effects of SAR Optimizations, Cys-Cys Cyclization and Lipopeptide Modifications” (International Journal of Molecular Sciences, 2022)
Values after ≈ are worked out from the molar mass of the structure shown. Where a SMILES comes first, the peptide text is derived from it. The star is where a group is joined. Lauroyl = CCCCCCCCCCCC(=O)*

How the values were obtained:
[1] = system: E. coli (Ec, ATCC 25922); assay: microbe, parasite or virus in culture; format: cell-based, Escherichia coli; details: for MIC: Escherichia coli, ATCC25922, Table 2, laboratory strain, read-out: MIC E. coli ATCC 25922 (from Table 1)
Method: (§1) All cyclic and linear peptides were screened for antibacterial activity against four Gram-positive strains: B. subtilis (Bs, ATCC 23857), C. glutamicum (Cg, ATCC 13032), S. aureus (Sa, ATCC 9144) and S. epidermidis RP62A (Se, ATCC 35984), and two Gram-negative strains: E. coli (Ec, ATCC 25922) and P. aeruginosa (Pa, ATCC 27853). The activity was assessed using a broth microdilution assay according to a modified CLSI-based method. Briefly, overnight bacterial cultures were grown in Mueller–Hinton (MH) broth medium (Difco Laboratories, Detroit, MI, USA) for 2 h at room temperature. The optical density (OD600) was measured, and the bacterial suspensions were adjusted to 2.5–3 × 10^4 CFU/mL in MH medium. The bacterial suspension (50 µL) was distributed in 96-well plates (Nunc, Roskilde, Denmark) preloaded with two-fold dilution series (256 to 1 µg/mL) of peptide solutions (50 µL), giving a final well volume of 100 µL. The microplates were incubated in an EnVision 2103 microplate reader (PerkinElmer, Llantrisant, UK) at 35 °C, with OD595 recorded every hour for 24 h. MIC was defined as the lowest concentration of peptides showing an optical density less than 10% of the negative (growth) control, consisting of bacterial suspension and water. Polymyxin B sulfate (Sigma-Aldrich, St. Louis, MO, USA) and chlorhexidine acetate (CHX, Fresenius Kabi, Halden, Norway), both with concentrations ranging from 12.5 to 0.09 μg/mL, served as positive (growth inhibition) controls. All peptides were tested in triplicate.

[2] = system: E. coli MC4100 (wild type, WT); assay: microbe, parasite or virus in culture; details: Escherichia coli, read-out: MIC E. coli MC4100 (WT)
Method: as §1
(§2) MIC values were determined for all cyclic peptides against two E. coli strains: wild type (WT) MC4100 and the hyperpermeable variant NR698, having a deficient outer membrane. The NR698 strain, containing lptD4213/imp4213 mutation, was kindly provided by M. Grabowicz (Emory University School of Medicine, Rollins Research Center, Atlanta, GA, USA). The assay was performed in the same way as previously described for the antibacterial MIC assay.

[3] = system: E. coli NR698 (outer membrane permeable mutant, imp4213); assay: microbe, parasite or virus in culture; details: Escherichia coli, read-out: MIC E. coli NR698 (mutant)
Method: as §1, §2

[4] = system: B. subtilis (Bs, ATCC 23857); assay: microbe, parasite or virus in culture; format: cell-based, Bacillus subtilis; details: ATCC 23857, 24 h
Method: as §1

[5] = system: C. glutamicum (Cg, ATCC 13032); assay: microbe, parasite or virus in culture; format: cell-based, Corynebacterium glutamicum; details: ATCC 13032, 24 h
Method: as §1

[6] = system: S. aureus (Sa, ATCC 9144); assay: microbe, parasite or virus in culture; format: cell-based, Staphylococcus aureus; details: ATCC 9144, 24 h
Method: as §1

[7] = system: S. epidermidis RP62A (Se, ATCC 35984); assay: microbe, parasite or virus in culture; format: cell-based, Staphylococcus epidermidis; details: ATCC 35984, 24 h
Method: as §1

[8] = system: P. aeruginosa (Pa, ATCC 27853); assay: microbe, parasite or virus in culture; format: cell-based, Pseudomonas aeruginosa; details: ATCC 27853, 24 h
Method: as §1

[9] = system: all bacterial strains; assay: Antibacterial MIC assay, all bacterial strains together (range or geometric mean); format: cell-based
Method: The selectivity index (SI) of the peptides towards bacteria over eukaryotic cells was calculated using the geometric mean (GM) of the MIC values against all bacterial test strains, according to the method by Orlov et al.. The SI for each peptide was determined as the ratio of the RBC-EC50 value by the corresponding GM value. Larger SI values indicate greater selectivity for microbial cells. […] In general, the SI was higher against the Gram-positive bacteral strains than the Gram-negative strains. (Table S3). Overall, peptides displaying EC50 < 100 µg/mL were considered too haemolytic to be of interest for further exploration.
as §1

[10] = system: A. pullulans (Ap); assay: microbe, parasite or virus in culture; format: cell-based, Aurobasidium pollulans; details: 48 h
Method: (§3) The synthesized peptides were screened for antifungal activity against the molds A. pullulans (Ap) and Rhodotorula sp. (Rh) (both obtained from Professor Arne Tronsmo, The Norwegian University of Life Sciences, Ås, Norway) and the yeast C. albicans (Ca, ATCC 10231) as previously described. In short, fungal spores were grown in potato dextrose broth media (Difco) containing 2% D(+)-glucose (Merck, Darmstadt, Germany) at 25–30 °C while shaking at 200 rpm overnight. The cultures were diluted with a dextrose media containing glucose to a concentration of approx. 4 × 10^5 spores/mL. Aliquots of the cultures (50 µL) were transferred to 96 well microtiter plates preloaded with the synthetic peptides (50 µL) in two-fold serial dilutions (256 to 1 µg/mL). Polymyxin B and CHX (both with concentrations ranging from 12.5 to 0.09 μg/mL) served as positive antibiotic controls. The microtiter plates containing the fungal spores and the test peptides were incubated at room temperature for 48 h and OD600 was recorded using a Synergy H1 Hybrid microplate reader system (BioTek, Winooski, VT, USA). MIC was defined as the lowest peptide concentration showing an optical density less than 10% of the negative (growth) control. All experiments were performed in triplicate.

[11] = system: C. albicans (Ca, ATCC 10231); assay: microbe, parasite or virus in culture; format: cell-based, Candida albicans; details: ATCC 10231, 48 h
Method: as §3

[12] = system: Rhodotorula sp. (Rh); assay: microbe, parasite or virus in culture; format: cell-based; details: 48 h
Method: as §3

[13] = system: human red blood cells (RBC); assay: Haemolytic activity assay; format: cell-based
Method: The synthetized lipopeptides were screened for haemolytic activity against human red blood cells (RBC), in concentrations ranging from 500 to 3.9 μM, following a previously described protocol. In brief, haemolysis was determined using a heparinizied (10 IU/mL) fraction of freshly drawn human blood. A second fraction of blood, which was collected in test tubes containing ethylenediaminetetraacetic acid (EDTA, Vacutest, KIMA, Arzergrande, Italy), was used for determination of the hematocrit (hct). Plasma was removed from heparinized blood by washing three times with prewarmed phosphate-buffered saline (PBS) before being adjusted to a hematocrit of 4%. Peptides dissolved in dimethyl sulfoxide (DMSO) were further diluted with PBS to a final DMSO content of ≤1%. Triton X-100 (Sigma-Aldrich, St. Louis, MO, USA), used at a final concentration of 0.1%, served as a positive control for 100% haemolysis, whereas 1% DMSO in PBS buffer served as a negative control where no toxicity was detected. Duplicates of test solutions and erythrocytes, with 1% hct final concentration, were prepared in a 96-well polypropylene V-bottom plate (Nunc, Fischer scientific, Oslo, Norway). They were incubated under agitation at 37 °C and 800 rpm for 1 h. After centrifugation (5 min, 3000× g), 100 µL from each well were transferred to a flat-bottomed 96-well plate and absorbance was measured at 545 nm with a microplate reader (SpectraMax 190, Molecular Devices, San Jose, CA, USA). After subtracting PBS background, the percentage of haemolysis was calculated as the ratio of the absorbance in the peptide-treated and surfactant-treated samples. Three independent experiments were performed, and EC50 (the concentration giving 50% haemolysis) values are presented as averages.

[14] = system: Gram-positive bacterial strains; details: Table S3; MIC >256 set to 256
Method: as §1

[15] = system: Gram-negative bacterial strains (E. coli and P. aeruginosa); assay: Antibacterial MIC assay, Gram-negative strains together (range or geometric mean); format: cell-based; details: Table S3; MIC >256 set to 256
Method: as §1

[16] = system: fungi (A. pullulans, C. albicans, Rhodotorula sp.); assay: Antifungal MIC assay, all fungi together (range or geometric mean); format: cell-based; details: Table S3; MIC >128 set to 128
Method: as §3

Compound: CC1(C)S[C@@H]2[C@H](NC(=O)[C@H](N)c3ccccc3)C(=O)N2[C@H]1C(=O)O [Ampicillin, reference compound]
- MIC [1]: 8 µg/mL (≈ 22.9 µM)
- MIC [2]: 8 µg/mL (≈ 22.9 µM)

Compound: O=C(N[C@H](CO)[C@H](O)c1ccc([N+](=O)[O-])cc1)C(Cl)Cl [Chloramphenicol, reference compound]
- MIC [1]: 1.8 µg/mL (≈ 5.57 µM)
- MIC [2]: 12.5 µg/mL (≈ 38.7 µM)
- MIC [3]: 3.1 µg/mL (≈ 9.59 µM)

Compound: CCCCCCCCCCCC(=O)N[C@@H](CS)C(=O)NCC(=O)N[C@@H](CCCCN)C(=O)N[C@@H](CCCCN)C(=O)N[C@@H](Cc1c[nH]c2ccccc12)C(=O)N[C@@H](Cc1c[nH]c2ccccc12)C(=O)NCC(=O)N[C@@H](Cc1c[nH]c2ccccc12)C(=O)N[C@@H](CCCCN)C(=O)N[C@@H](CS)C(=O)N[C@@H](CCCCN)C(=O)N[C@@H](CC(C)C)C(N)=O [Peptide C12-Turg-2, C12- CGKKWWGWKC KL-NH2] (Lauroyl-CGKKWWGWKCKL-NH2)
- Antimicrobial Activity (MIC) Gram + Bs [4]: 8 µg/mL
- Antimicrobial Activity (MIC) Gram + Cg [5]: 16 µg/mL
- Antimicrobial Activity (MIC) Gram + Sa [6]: 16 µg/mL
- Antimicrobial Activity (MIC) Gram + Se [7]: 8 µg/mL
- Antimicrobial Activity (MIC) Gram − Ec ([1]; ATCC 25922, 24 h): 16 µg/mL
- Antimicrobial Activity (MIC) Gram − Pa [8]: 32 µg/mL
- GM (geometric mean of the MIC values against all bacterial strains) ([9]; Table 1, six bacterial strains): 14 µg/mL
- GM of MIC Tot. bact. ([9]; Table S3, all bacterial test strains, MIC >256 set to 256): 14 µg/mL
- Antimicrobial Activity (MIC) Fungi Ap [10]: 32 µg/mL
- Antimicrobial Activity (MIC) Fungi Ca [11]: 64 µg/mL
- Antimicrobial Activity (MIC) Fungi Rh [12]: 32 µg/mL
- Selectivity index (SI) G- ([13]; Table S3, EC50/GM of Gram-negative strains, highest tested concentration used where EC50 above it): 2
- Selectivity index (SI) G+ ([13]; Table S3, EC50/GM of Gram-positive strains, highest tested concentration used where EC50 above it): 5
- Selectivity index (SI) Fungi ([13]; Table S3, EC50/GM of fungi, highest tested concentration used where EC50 above it): 1
- SI (selectivity index = EC50/GM) ([13]; haemolytic EC50 over GM of MIC against all bacterial strains, Table 1): 4
- GM of MIC G+ [14]: 11 µg/mL
- GM of MIC G- [15]: 23 µg/mL
- GM of MIC Fungi [16]: 40 µg/mL
